Experimental data published in publication PMC10289903 (Investigational New Drugs, 2023).
Where two headings read alike, the source gives them in different places.

Tested on: patients with locally advanced or metastatic solid tumors
Excerpt: This was a Phase Ib, multicenter, open-label, dose-finding clinical trial (NCT02610075). […] Three types of treatment schedules were investigated: cohorts bid 1, bid 2, qd 1.1, qd 2.1 and qd 3.1 received bid or qd treatment on a 5/9 schedule (5 days on treatment, followed by 9 days off) on a 14-day cycle. Cohorts qd 1.2, qd 2.2, and qd 3.2 received treatment on a 5/2 schedule (5 days on followed by 2 days off for 2 of 3 weeks) in a 21-day cycle. Cohorts qd 2.3 and qd 3.3 received treatment on a weekly 5/2 schedule in a 21-day cycle (Table 1). The highest dose level(s) at which less than one-third of evaluable patients (none of 3 patients or 1 of 6 patients) experienced a dose-limiting toxicity (DLT) was declared the MTD.
The per protocol analysis set was defined as a subset of the full analysis set, excluding subjects having an important protocol deviation, to be used for analyses of efficacy endpoints if appropriate.

Structure (SMILES): C=CCn1c(=O)c2cnc(Nc3ccc(N4CCN(C)CC4)cc3)nc2n1-c1cccc(C(C)(C)O)n1 [adavosertib, Adavosertib]
- Dizziness (treatment-emergent AE) (qd 1.1: 200 mg qd 5/9 (n=5)): 1 (20.0) n (%)
- Dyspepsia (treatment-emergent AE) (qd 1.1: 200 mg qd 5/9 (n=5)): 1 (20.0) n (%)
- Dyspepsia (treatment-related AE) (qd 1.1: 200 mg qd 5/9 (n=5)): 0 n (%)
- Dyspnea (treatment-emergent AE) (qd 1.1: 200 mg qd 5/9 (n=5)): 0 n (%)
- Edema peripheral (treatment-emergent AE) (qd 1.1: 200 mg qd 5/9 (n=5)): 0 n (%)
- Fall (treatment-emergent AE) (qd 1.1: 200 mg qd 5/9 (n=5)): 0 n (%)
- Fatigue (treatment-emergent AE) (qd 1.1: 200 mg qd 5/9 (n=5)): 2 (40.0) n (%)
- Fatigue (treatment-related AE) (qd 1.1: 200 mg qd 5/9 (n=5)): 1 (20.0) n (%)
- Headache (treatment-emergent AE) (qd 1.1: 200 mg qd 5/9 (n=5)): 1 (20.0) n (%)
- Hypokalemia (treatment-emergent AE) (qd 1.1: 200 mg qd 5/9 (n=5)): 0 n (%)
- Insomnia (treatment-emergent AE) (qd 1.1: 200 mg qd 5/9 (n=5)): 0 n (%)
- Muscle spasms (treatment-emergent AE) (qd 1.1: 200 mg qd 5/9 (n=5)): 0 n (%)
- Myalgia (treatment-emergent AE) (qd 1.1: 200 mg qd 5/9 (n=5)): 1 (20.0) n (%)
- Myalgia (treatment-related AE) (qd 1.1: 200 mg qd 5/9 (n=5)): 1 (20.0) n (%)
- Nausea (treatment-emergent AE) (qd 1.1: 200 mg qd 5/9 (n=5)): 1 (20.0) n (%)
- Nausea (treatment-related AE) (qd 1.1: 200 mg qd 5/9 (n=5)): 1 (20.0) n (%)
- Neutropenia (treatment-emergent AE) (qd 1.1: 200 mg qd 5/9 (n=5)): 1 (20.0) n (%)
- Neutropenia (treatment-related AE) (qd 1.1: 200 mg qd 5/9 (n=5)): 1 (20.0) n (%)
- Pneumonia (treatment-emergent AE) (qd 1.1: 200 mg qd 5/9 (n=5)): 0 n (%)
- Pyrexia (treatment-emergent AE) (qd 1.1: 200 mg qd 5/9 (n=5)): 1 (20.0) n (%)
- Rash (treatment-emergent AE) (qd 1.1: 200 mg qd 5/9 (n=5)): 1 (20.0) n (%)
- Thrombocytopenia (treatment-emergent AE) (qd 1.1: 200 mg qd 5/9 (n=5)): 0 n (%)
- Thrombocytopenia (treatment-related AE) (qd 1.1: 200 mg qd 5/9 (n=5)): 0 n (%)
- Urinary tract infection (treatment-emergent AE) (qd 1.1: 200 mg qd 5/9 (n=5)): 1 (20.0) n (%)
- Vomiting (treatment-emergent AE) (qd 1.1: 200 mg qd 5/9 (n=5)): 0 n (%)
- Vomiting (treatment-related AE) (qd 1.1: 200 mg qd 5/9 (n=5)): 0 n (%)
- Abdominal pain (treatment-emergent AE) (qd 1.2: 200 mg qd 5/2 (n=6)): 2 (33.3) n (%)
- Abdominal pain (treatment-related AE) (qd 1.2: 200 mg qd 5/2 (n=6)): 1 (16.7) n (%)
- Alanine aminotransferase increased (treatment-emergent AE) (qd 1.2: 200 mg qd 5/2 (n=6)): 1 (16.7) n (%)
- Anemia (treatment-emergent AE) (qd 1.2: 200 mg qd 5/2 (n=6)): 2 (33.3) n (%)
- Anemia (treatment-related AE) (qd 1.2: 200 mg qd 5/2 (n=6)): 2 (33.3) n (%)
- Any AE (treatment-emergent) (qd 1.2: 200 mg qd 5/2 (n=6)): 6 (100) n (%)
- Any grade ≥ 3 AE (qd 1.2: 200 mg qd 5/2 (n=6)): 3 (50.0) n (%)
- Any treatment-related AE (qd 1.2: 200 mg qd 5/2 (n=6)): 6 (100) n (%)
- Any treatment-related grade ≥ 3 AE (qd 1.2: 200 mg qd 5/2 (n=6)): 2 (33.3) n (%)
- Asthenia (treatment-emergent AE) (qd 1.2: 200 mg qd 5/2 (n=6)): 0 n (%)
- Asthenia (treatment-related AE) (qd 1.2: 200 mg qd 5/2 (n=6)): 0 n (%)
- Back pain (treatment-emergent AE) (qd 1.2: 200 mg qd 5/2 (n=6)): 1 (16.7) n (%)
- Constipation (treatment-emergent AE) (qd 1.2: 200 mg qd 5/2 (n=6)): 2 (33.3) n (%)
- Constipation (treatment-related AE) (qd 1.2: 200 mg qd 5/2 (n=6)): 1 (16.7) n (%)
- Cough (treatment-emergent AE) (qd 1.2: 200 mg qd 5/2 (n=6)): 1 (16.7) n (%)
- Decreased appetite (treatment-emergent AE) (qd 1.2: 200 mg qd 5/2 (n=6)): 1 (16.7) n (%)
- Decreased appetite (treatment-related AE) (qd 1.2: 200 mg qd 5/2 (n=6)): 1 (16.7) n (%)
- Dehydration (treatment-emergent AE) (qd 1.2: 200 mg qd 5/2 (n=6)): 2 (33.3) n (%)
- Dehydration (treatment-related AE) (qd 1.2: 200 mg qd 5/2 (n=6)): 1 (16.7) n (%)
- Diarrhea (treatment-emergent AE) (qd 1.2: 200 mg qd 5/2 (n=6)): 3 (50.0) n (%)
- Diarrhea (treatment-related AE) (qd 1.2: 200 mg qd 5/2 (n=6)): 2 (33.3) n (%)
- Dizziness (treatment-emergent AE) (qd 1.2: 200 mg qd 5/2 (n=6)): 2 (33.3) n (%)
- Dyspepsia (treatment-emergent AE) (qd 1.2: 200 mg qd 5/2 (n=6)): 1 (16.7) n (%)
- Dyspepsia (treatment-related AE) (qd 1.2: 200 mg qd 5/2 (n=6)): 1 (16.7) n (%)
- Dyspnea (treatment-emergent AE) (qd 1.2: 200 mg qd 5/2 (n=6)): 1 (16.7) n (%)
- Edema peripheral (treatment-emergent AE) (qd 1.2: 200 mg qd 5/2 (n=6)): 3 (50.0) n (%)
- Fall (treatment-emergent AE) (qd 1.2: 200 mg qd 5/2 (n=6)): 1 (16.7) n (%)
- Fatigue (treatment-emergent AE) (qd 1.2: 200 mg qd 5/2 (n=6)): 1 (16.7) n (%)
- Fatigue (treatment-related AE) (qd 1.2: 200 mg qd 5/2 (n=6)): 1 (16.7) n (%)
- Headache (treatment-emergent AE) (qd 1.2: 200 mg qd 5/2 (n=6)): 2 (33.3) n (%)
- Hypokalemia (treatment-emergent AE) (qd 1.2: 200 mg qd 5/2 (n=6)): 0 n (%)
- Insomnia (treatment-emergent AE) (qd 1.2: 200 mg qd 5/2 (n=6)): 1 (16.7) n (%)
- Muscle spasms (treatment-emergent AE) (qd 1.2: 200 mg qd 5/2 (n=6)): 1 (16.7) n (%)
- Myalgia (treatment-emergent AE) (qd 1.2: 200 mg qd 5/2 (n=6)): 3 (50.0) n (%)
- Myalgia (treatment-related AE) (qd 1.2: 200 mg qd 5/2 (n=6)): 3 (50.0) n (%)
- Nausea (treatment-emergent AE) (qd 1.2: 200 mg qd 5/2 (n=6)): 4 (66.7) n (%)
- Nausea (treatment-related AE) (qd 1.2: 200 mg qd 5/2 (n=6)): 4 (66.7) n (%)
- Neutropenia (treatment-emergent AE) (qd 1.2: 200 mg qd 5/2 (n=6)): 1 (16.7) n (%)
- Neutropenia (treatment-related AE) (qd 1.2: 200 mg qd 5/2 (n=6)): 0 n (%)
- Pneumonia (treatment-emergent AE) (qd 1.2: 200 mg qd 5/2 (n=6)): 0 n (%)
- Pyrexia (treatment-emergent AE) (qd 1.2: 200 mg qd 5/2 (n=6)): 1 (16.7) n (%)
- Rash (treatment-emergent AE) (qd 1.2: 200 mg qd 5/2 (n=6)): 0 n (%)
- Thrombocytopenia (treatment-emergent AE) (qd 1.2: 200 mg qd 5/2 (n=6)): 0 n (%)
- Thrombocytopenia (treatment-related AE) (qd 1.2: 200 mg qd 5/2 (n=6)): 0 n (%)
- Urinary tract infection (treatment-emergent AE) (qd 1.2: 200 mg qd 5/2 (n=6)): 1 (16.7) n (%)
- Vomiting (treatment-emergent AE) (qd 1.2: 200 mg qd 5/2 (n=6)): 3 (50.0) n (%)
- Vomiting (treatment-related AE) (qd 1.2: 200 mg qd 5/2 (n=6)): 3 (50.0) n (%)
- Abdominal pain (treatment-emergent AE) (qd 2.1: 250 mg qd 5/9 (n=4)): 1 (25.0) n (%)
- Abdominal pain (treatment-related AE) (qd 2.1: 250 mg qd 5/9 (n=4)): 1 (25.0) n (%)
- Alanine aminotransferase increased (treatment-emergent AE) (qd 2.1: 250 mg qd 5/9 (n=4)): 0 n (%)
- Anemia (treatment-emergent AE) (qd 2.1: 250 mg qd 5/9 (n=4)): 1 (25.0) n (%)
- Anemia (treatment-related AE) (qd 2.1: 250 mg qd 5/9 (n=4)): 0 n (%)
- Any AE (treatment-emergent) (qd 2.1: 250 mg qd 5/9 (n=4)): 4 (100) n (%)
- Any grade ≥ 3 AE (qd 2.1: 250 mg qd 5/9 (n=4)): 2 (50.0) n (%)
- Any treatment-related AE (qd 2.1: 250 mg qd 5/9 (n=4)): 2 (50.0) n (%)
- Any treatment-related grade ≥ 3 AE (qd 2.1: 250 mg qd 5/9 (n=4)): 0 n (%)
- Asthenia (treatment-emergent AE) (qd 2.1: 250 mg qd 5/9 (n=4)): 0 n (%)
- Asthenia (treatment-related AE) (qd 2.1: 250 mg qd 5/9 (n=4)): 0 n (%)
- Back pain (treatment-emergent AE) (qd 2.1: 250 mg qd 5/9 (n=4)): 0 n (%)
- Constipation (treatment-emergent AE) (qd 2.1: 250 mg qd 5/9 (n=4)): 0 n (%)
- Constipation (treatment-related AE) (qd 2.1: 250 mg qd 5/9 (n=4)): 0 n (%)
- Cough (treatment-emergent AE) (qd 2.1: 250 mg qd 5/9 (n=4)): 2 (50.0) n (%)
- Decreased appetite (treatment-emergent AE) (qd 2.1: 250 mg qd 5/9 (n=4)): 0 n (%)
- Decreased appetite (treatment-related AE) (qd 2.1: 250 mg qd 5/9 (n=4)): 0 n (%)
- Dehydration (treatment-emergent AE) (qd 2.1: 250 mg qd 5/9 (n=4)): 0 n (%)
- Dehydration (treatment-related AE) (qd 2.1: 250 mg qd 5/9 (n=4)): 0 n (%)
- Diarrhea (treatment-emergent AE) (qd 2.1: 250 mg qd 5/9 (n=4)): 1 (25.0) n (%)
- Diarrhea (treatment-related AE) (qd 2.1: 250 mg qd 5/9 (n=4)): 1 (25.0) n (%)
- Dizziness (treatment-emergent AE) (qd 2.1: 250 mg qd 5/9 (n=4)): 0 n (%)
- Dyspepsia (treatment-emergent AE) (qd 2.1: 250 mg qd 5/9 (n=4)): 0 n (%)
- Dyspepsia (treatment-related AE) (qd 2.1: 250 mg qd 5/9 (n=4)): 0 n (%)
- Dyspnea (treatment-emergent AE) (qd 2.1: 250 mg qd 5/9 (n=4)): 0 n (%)
- Edema peripheral (treatment-emergent AE) (qd 2.1: 250 mg qd 5/9 (n=4)): 1 (25.0) n (%)
- Fall (treatment-emergent AE) (qd 2.1: 250 mg qd 5/9 (n=4)): 0 n (%)
- Fatigue (treatment-emergent AE) (qd 2.1: 250 mg qd 5/9 (n=4)): 0 n (%)
- Fatigue (treatment-related AE) (qd 2.1: 250 mg qd 5/9 (n=4)): 0 n (%)
- Headache (treatment-emergent AE) (qd 2.1: 250 mg qd 5/9 (n=4)): 0 n (%)
- Hypokalemia (treatment-emergent AE) (qd 2.1: 250 mg qd 5/9 (n=4)): 0 n (%)
- Insomnia (treatment-emergent AE) (qd 2.1: 250 mg qd 5/9 (n=4)): 0 n (%)
- Muscle spasms (treatment-emergent AE) (qd 2.1: 250 mg qd 5/9 (n=4)): 0 n (%)
- Myalgia (treatment-emergent AE) (qd 2.1: 250 mg qd 5/9 (n=4)): 0 n (%)
- Myalgia (treatment-related AE) (qd 2.1: 250 mg qd 5/9 (n=4)): 0 n (%)
- Nausea (treatment-emergent AE) (qd 2.1: 250 mg qd 5/9 (n=4)): 0 n (%)
- Nausea (treatment-related AE) (qd 2.1: 250 mg qd 5/9 (n=4)): 0 n (%)
- Neutropenia (treatment-emergent AE) (qd 2.1: 250 mg qd 5/9 (n=4)): 0 n (%)
- Neutropenia (treatment-related AE) (qd 2.1: 250 mg qd 5/9 (n=4)): 0 n (%)
- Pneumonia (treatment-emergent AE) (qd 2.1: 250 mg qd 5/9 (n=4)): 0 n (%)
- Pyrexia (treatment-emergent AE) (qd 2.1: 250 mg qd 5/9 (n=4)): 1 (25.0) n (%)
- Rash (treatment-emergent AE) (qd 2.1: 250 mg qd 5/9 (n=4)): 0 n (%)
- Thrombocytopenia (treatment-emergent AE) (qd 2.1: 250 mg qd 5/9 (n=4)): 0 n (%)
